Assay results as given in patent publication US4853467A, “Nitrogen containing derivatives of epipodophyllotoxin glucosides” (Bristol-Myers Company, priority 1987, dated 1989).
Values after ≈ are worked out from the molar mass of the structure shown.

What was measured:
Moser human colon = assay: In vitro cytotoxicity assay, Moser human colon; format: cell-based; conditions: two values per compound, four-fold serial dilution
Procedure: (§1) The in vitro cytotoxicity assay involved growing various mammalian tumor cells, including human tumor cells, on microtitre plates employing established tissue culture methods. The concentration of each compound required to inhibit cell growth by 50% (IC50) was then determined by a four-fold serial dilution technique. The validity of the method has been supported by a report published in the "Proceedings of the American Association for Cancer Research", 1984, 25:1891 (Abst. No. 328). Tumor cells of the following types were employed for each compound tested: B16-F10 murine melanoma; Moser human colon; SW900 human lung and three human colon tumor cell lines namely HCT-116, HCT-VM, and HCT-VP, the latter two being resistant to teniposide (VM) and etoposide (VP), respectively. IC50 values less than 500 μg/ml are a positive indicator of antitumor activity. Table II presents IC50 values of various compounds of the present invention against the aforementioned cell lines.

P388 murine leukemia = assay: P388 Leukemia, antitumor activity against murine P388 leukemia; format: in vivo, murine (female CDF1 mice); conditions: i.p. on days 5 and 8; 10^6 P388 cells i.p.; maximum effect over doses; >=125 considered significant; etoposide values in parentheses are positive control in same experiment
Procedure: Female CDF1 mice were implanted intraperitoneally with a tumor inoculum of 10^6 ascites cells of P388 murine leukemia and treated with various doses of a test compound; four mice were used for each dose level and ten were used as saline-treated control. The compounds were administered by intraperitoneal injection on days 5 and 8 (day 1 being the day of tumor implantation). Antitumor activity was expressed as % T/C which is the ratio of the median survival time (MST) of drug-treated group to the MST of saline-treated control group. A compound showing a % T/C value of 125 or greater is generally considered to have significant antitumor activity in the P388 test. The experiment lasted 31 days at the end of which time the number of survivors was noted. Table I presents the results of the above-described evaluation; only the maximum % T/C and the dose showing the maximum effect are reported.

HCT/VM34 = assay: In vitro cytotoxicity assay, HCT/VM34 teniposide-resistant human colon tumor; format: cell-based; conditions: HCT/VM34, resistant to teniposide, two values per compound, four-fold serial dilution
Procedure: as §1

B16-F10 murine melanoma = assay: In vitro cytotoxicity assay, B16-F10 murine melanoma; format: cell-based; conditions: two values per compound, four-fold serial dilution
Procedure: as §1

SW900 human lung = assay: In vitro cytotoxicity assay, SW900 human lung; format: cell-based; conditions: Homo sapiens, SW900, SW900 human lung; two values per compound; four-fold serial dilution
Procedure: as §1

HCT/VP35 = assay: In vitro cytotoxicity assay, HCT/VP35 etoposide-resistant human colon tumor; format: cell-based; conditions: two values per compound, four-fold serial dilution
Procedure: as §1

HCT-116 = assay: In vitro cytotoxicity assay, HCT-116 human colon tumor; format: cell-based; conditions: two values per compound, four-fold serial dilution
Procedure: as §1

[1] = test system: small cell lung cancer, non-lymphocytic leukemia, and non-seminomatous testicular cancer; conditions: AMA Drug Evaluation, 5th Edition, 1983; cited from earlier work

SMILES | IC50 (Moser human colon; Homo sapiens) | In vitro cytotoxicity IC50, MOSER (Moser human colon) | Max % T/C (ratio of median survival time of drug-treated group to saline-treated control group) (P388 murine leukemia) | In vitro cytotoxicity IC50, HCT/VM34 (HCT/VM34) | IC50 (HCT/VM34; Homo sapiens) | In vitro cytotoxicity IC50, B-16-F10 (B16-F10 murine melanoma; B16-F10 murine melanoma) | IC50 (B16-F10 murine melanoma; Mus musculus, B16-F10, B16-F10 murine melanoma, read-out: In vitro cytotoxicity IC50, B-16-F10) | IC50 (SW900 human lung) | In vitro cytotoxicity IC50, HCT/VP35 (HCT/VP35; HCT/VP35, resistant to etoposide) | IC50 (HCT/VP35; Homo sapiens, HCT/VP35, HCT/VP35, resistant to etoposide) | In vitro cytotoxicity IC50, HCT-116 (HCT-116; HCT-116 human colon) | IC50 (HCT-116; Homo sapiens, HCT-116, HCT-116 human colon) | activity in the treatment of cancers [1]
C[C@@H]1OC[C@H]2O[C@@H](O[C@@H]3c4cc5c(cc4[C@@H](C4=CC(=O)C(=O)C(NC(=O)NCCCl)=C4)[C@H]4C(=O)OC[C@@H]43)OCO5)[C@H](O)[C@@H](O)[C@@H]2O1 [Example 29, 5'-Desmethoxy-5'-[[(2-chloroethyl)amino]carbonyl]amino etoposide 3',4'-ortho-quinone] | 71 µg/mL (≈ 107 µM) | 77 µg/mL | 135% | 53 µg/mL | 55 µg/mL (≈ 83 µM) | 38 µg/mL | 39 µg/mL (≈ 58.8 µM) | > 188 µg/mL | 79 µg/mL | 77 µg/mL (≈ 116 µM) | 46 µg/mL | 53 µg/mL (≈ 79.9 µM) | –
COc1cc([C@@H]2c3cc4c(cc3[C@@H](O[C@@H]3O[C@@H]5CO[C@@H](C)O[C@H]5[C@H](O)[C@H]3O)[C@H]3COC(=O)[C@H]23)OCO4)cc(OC)c1O [etoposide] | – | – | – | – | – | – | – | – | – | – | – | – | active in the treatment of a variety of cancers including small cell lung cancer, non-lymphocytic leukemia, and non-seminomatous testicular cancer
COc1cc([C@@H]2c3cc4c(cc3[C@@H](O[C@@H]3O[C@@H]5CO[C@@H](c6cccs6)O[C@H]5[C@H](O)[C@H]3O)[C@H]3COC(=O)[C@H]23)OCO4)cc(OC)c1O [teniposide] | – | – | – | – | – | – | – | – | – | – | – | – | active in the treatment of a variety of cancers including small cell lung cancer, non-lymphocytic leukemia, and non-seminomatous testicular cancer
